The text below walks through data of ChEMBL document CHEMBL1201862, “PubChem BioAssay data set” (2004).

Test systems include 786-0; BT-549; CAKI-1; CCRF-CEM; DU-145; HCC 2998; KM12; LOX IMVI; M19-MEL; MDA-MB-435; Malme-3M; NCI-H23; SF-268; SF-295; SK-MEL-28; SNB-19; SNB-75; SW-620; T47D; U-251.
Holding throughout (assay): NCI tumour cell line growth inhibition, 48 h

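All cell lines were grown in 96-well plates and treated with compound for 48 hours. At the GI50, growth is halved.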 Calls of active or inactive are those of the source. Cut-off read from the data, not from the text of the source: active = GI50 up to about 1.1 µM and inactive = higher.

For `CCOCC(=O)N[C@H]1CCc2cc(OC)c(OC)c(OC)c2-c2ccc(SC)c(=O)cc21`, the GI50 with 786-0 was < 0.01 µM (active); in the assay with BT-549, < 10 nM (active); in the assay on CAKI-1 it was < 0.01 µM (active); with CCRF-CEM, < 0.0182 µM (active); in the assay with DU-145, < 10 nM (active); in the assay with HCC 2998, < 0.01 µM (active). The GI50 is < 0.01 µM (active) in the assay on KM12; < 0.01 µM (active) with LOX IMVI; < 0.01 µM (active) with M19-MEL; < 10 nM (active) with MDA-MB-435; < 0.01 µM (active) in the assay with Malme-3M; < 0.01 µM (active) in the assay with NCI-H23. Besides, the GI50 is < 0.01 µM (active) with SF-268; < 0.01 µM (active) in the assay with SF-295; > 4.65 µM (inactive) in the assay on SK-MEL-28; < 0.01 µM (active) in the assay on SNB-19; 0.0102 µM (active) with SNB-75; < 0.01 µM (active) in the assay with SW-620. Also, the figures for the GI50 with T47D and in the assay with U-251 were > 100 µM (inactive) and < 0.01 µM (active), respectively.
As to `COC(=O)c1c2c(cc3c1CC1(Cc4cc5c(c(C(C)=O)c4C1)CCC5)C3)CCC2` (stereo unspecified), the GI50 was 42.4 µM (inactive) with 786-0; 34.2 µM (inactive) in the assay with CAKI-1; > 100 µM (inactive) in the assay on CCRF-CEM; > 100 µM (inactive) with HCC 2998; > 100 µM (inactive) in the assay on KM12; 50.1 µM (inactive) with LOX IMVI. The GI50 with M19-MEL is > 100 µM (inactive); with Malme-3M, 16.4 µM (inactive); in the assay on NCI-H23 it was 64.1 µM (inactive); in the assay on SF-268 it was 67.3 µM (inactive); in the assay with SF-295 it was 28.8 µM (inactive); with SK-MEL-28, > 100 µM (inactive). For the same molecule, the GI50 in the assay with SNB-19 was 58.3 µM (inactive); with SNB-75, 24.6 µM (inactive); in the assay with SW-620 it was > 100 µM (inactive); in the assay with U-251, 78.3 µM (inactive).
